Laboratory results reported in article PMC7998309, “Structural-Based Optimizations of the Marine-Originated Meridianin C as Glucose Uptake Agents by Inhibiting GSK-3β” (Marine Drugs, 2021).

Key:
[1] = MTT assay for cell viability (cytotoxicity); assay type: cell-based, human; details: human; HepG2 cells, 48 h incubation, MTT
Experimental: (§1) The hepatocyte cell line HepG2 cells obtained from the Type Culture Collection of the Chinese Academy of Sciences (Shanghai, China) were maintained in high-glucose DMEM (Gibco) supplemented with 10% fetal bovine serum (FBS) and 1% penicillin-streptomycin in an atmosphere of 5% CO2 at 37 °C.
(§2) Into a 96-well plate, 1 × 10^3 HepG2 cells per well were seeded. After 24 h, stock solutions of test compounds in DMSO were diluted in DMEM to ≤0.1% final DMSO concentration. Cells were treated with various concentrations (2.5–25 µM) of tested compounds for 48 h, and the MTT solution (0.5 mg/mL) was added. After 4 h of incubation at 37 °C for MTT-formazan formation, the supernatant was discarded and 100 µL of DMSO was applied into each well to dissolve formazan crystals. Absorbance at 490 nm was determined spectrophotometrically by using a microplate reader (Epoch, BioTek Instruments, Inc., Winooski, VT, USA).

[2] = tested on: HepG2 cells; assay: MTT assay for cell viability (cytotoxicity); assay type: cell-based, human
Experimental: as §1, §2

[3] = target: T1, human GSK-3β (Homo sapiens, UniProt P49841); assay: Inhibition of recombinant GSK-3β (Z-lyte assay); assay type: biochemical; details: human GSK-3β, top concentration 30 μM
T1 construct: purchased Invitrogen
T1 sequence (P49841 whole entry): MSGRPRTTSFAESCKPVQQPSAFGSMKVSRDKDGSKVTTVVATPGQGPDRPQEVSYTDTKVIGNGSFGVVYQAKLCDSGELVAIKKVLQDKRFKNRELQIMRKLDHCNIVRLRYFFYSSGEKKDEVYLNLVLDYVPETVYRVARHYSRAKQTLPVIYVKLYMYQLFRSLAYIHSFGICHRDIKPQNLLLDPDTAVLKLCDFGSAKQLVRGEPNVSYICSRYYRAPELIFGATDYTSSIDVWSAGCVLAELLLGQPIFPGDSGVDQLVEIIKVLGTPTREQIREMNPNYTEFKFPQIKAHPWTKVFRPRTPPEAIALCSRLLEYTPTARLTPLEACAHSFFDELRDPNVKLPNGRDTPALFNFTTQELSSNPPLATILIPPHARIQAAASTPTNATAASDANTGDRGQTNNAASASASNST
Experimental: The activity of recombinant GSK-3β (Invitrogen) was measured in a Z-lyte assay of Invitrogen. In this assay, 100 nL of the compound solution in DMSO was transferred to a 384-well assay plate (the compound got threefold serial dilution, and the top concentration of the compound was 30 μM in the final reaction mixture). Then 5 μL of an enzyme (2 nM) and Ser/Thr 9 peptide (4 μM) mixture was added. After the enzyme and peptide pre-incubation with the compound for 30 min at 23 °C, 5 μL of ATP (12 μM) solution was added. The plate was incubated for 60 min at 23 °C. The reaction was stopped with 5 μL of development reagent. Fluorescence signals were detected with Envision (PerkinElmer, America) after 30 min of incubation, and the emission ratio (RFU 460 nm/RFU 535 nm) was used to analyze the data. The relative IC50 was reported using four-parameter logistic fit of IDBS Xlfit software. The IC50 values were calculated using the following equation: %Phosphorylation = 1 - (Emission Ratio × F100%) - C100%/(C0% - C100%) + [Emission Ratio × (F100% - F0%)] where
Emission ratio = Coumarin/Fluorescein ratio of sample wells
C100% = Average coumarin emission signal of the 100% phos. control
C0% = Average coumarin emission signal of the 0% phos. control
F100% = Average fluorescein emission signal of the 100% phos. control
F0% = Average fluorescein emission signal of the 0% phos. control %Inhibition = {1 - %Phos Sample/%Phos 0%Inhibition Ctl}*100

[4] = tested on: HepG2 cells; assay: Cell glucose uptake assay in HepG2 cells; assay type: cell-based, human; details: relative glucose uptake at 5 µM in HepG2 cells, 3 h, compared with original glucose concentration of the medium; na = not active at 5 µM
Experimental: as §1
Into a 96-well plate, 5 × 10^3 HepG2 cells per well were seeded. After 48 h, phenol red-free DMEM (Gibco) with 1% FBS was transferred to deprive the cells overnight, and then the tested compounds dissolved in a glucose-HEPES buffer (glucose concentration was 100 µg/mL) at a concentration of 5 µM were added to the culture system. Three hours later, the culture supernatants were collected and the glucose concentrations were detected using the Glucose (GO) Assay Kit (Sigma-Aldrich Corp.). Compared with the original glucose concentration of the buffer, the relative glucose uptake was calculated.

**Q.** With `Cc1cccc(C)c1Nc1nccc(-c2c[nH]c3ccc(Br)cc23)n1` [B30, 4-(5-Bromo-1H-indol-3-yl)-N-(2,6-dimethylphenyl) pyrimidin-2-amine] as the molecule, how does the CC50 at 48 h [1] read?
**A.** Its CC50 at 48 h is 18.1 µM.

**Q.** What about the “toxicity against HepG2 cells (in words)” value [2] of the same molecule?
**A.** The value was “no significant toxicity”.

**Q.** What about the melting point of the same molecule?
**A.** Its melting point is 228.5 to 229.4 °C.

**Q.** And the IC50 [3]?
**A.** Its IC50 is 24.4 µM.

**Q.** What about the “Cell Glucose Uptake (%)” value [4] of the same molecule?
**A.** The value was 38%.
